Experimental data as given in PubChem BioAssay (NCI).
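In this assay, cells in 96-well plates receive the compound at five concentrations for 48 hours. Endpoints are linearly interpolated between the surrounding concentrations. Abbreviation: GI50, concentration required for 50% inhibition of growth. The concentration for full growth arrest is given as TGI.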

How the values were obtained:
Assay in all cases: DTP human tumour cell line panel, 48 h
SNB-75 CNS = system: SNB-75 CNS
MALME-3M melanoma = system: MALME-3M melanoma
HS 578T breast = system: HS 578T breast
SK-MEL-5 melanoma = system: SK-MEL-5 melanoma
M14 melanoma = system: M14 melanoma
SK-OV-3 ovarian = system: SK-OV-3 ovarian
HCC-2998 colon = system: HCC-2998 colon
OVCAR-8 ovarian = system: OVCAR-8 ovarian
NCI/ADR-RES ovarian = system: NCI/ADR-RES ovarian
MCF7 breast = system: MCF7 breast

| Compound | GI50 (SNB-75 CNS) | TGI (SNB-75 CNS) | GI50 (MALME-3M melanoma) | TGI (MALME-3M melanoma) | GI50 (HS 578T breast) | TGI (HS 578T breast) | GI50 (SK-MEL-5 melanoma) | TGI (SK-MEL-5 melanoma) | GI50 (M14 melanoma) | TGI (M14 melanoma) | GI50 (SK-OV-3 ovarian) | TGI (SK-OV-3 ovarian) | GI50 (HCC-2998 colon) | TGI (HCC-2998 colon) | GI50 (OVCAR-8 ovarian) | TGI (OVCAR-8 ovarian) | GI50 (NCI/ADR-RES ovarian) | TGI (NCI/ADR-RES ovarian) | GI50 (MCF7 breast) | TGI (MCF7 breast) |
| --- | --- | --- | --- | --- | --- | --- | --- | --- | --- | --- | --- | --- | --- | --- | --- | --- | --- | --- | --- | --- |
| C#C[C@]1(O)CC[C@H]2[C@@H]3CC=C4c5sc(N=C(N)N)nc5CC[C@]4(C)[C@H]3CC[C@@]21C | 0.152 µM | 1.32 µM | 0.338 µM | 1.19 µM | 0.243 µM | 1.11 µM | 0.628 µM | 1.66 µM | 0.497 µM | 1.56 µM | 1.05 µM | 2.33 µM | 1.59 µM | 3.1 µM | 1.63 µM | 4.53 µM | 1.44 µM | 3.59 µM | 0.391 µM | 1.88 µM |
| COc1cc(CSc2nc3ccc(C)cc3c(=O)n2Cc2ccccc2)cc(OC)c1OC | 0.804 µM | 4.21 µM | 3.09 µM | 34.3 µM | 2.57 µM | 48.8 µM | 1.45 µM | 12.8 µM | 3.08 µM | > 100 µM | 2.86 µM | 17.8 µM | 3.96 µM | > 100 µM | 4.41 µM | > 100 µM | 1.51 µM | 14.6 µM | 0.587 µM | 22.8 µM |
| CC(C)=CCc1c(O)cc(/C=C/c2cc(O)c3c(c2)C[C@@H]2C(C)(C)[C@H](O)[C@H](O)C[C@@]2(C)O3)cc1O | < 0.001 µM | 0.958 µM | 1.21 µM | 6.51 µM | < 0.001 µM | > 2.21 µM | 1.03 µM | 2.32 µM | 0.548 µM | 4.02 µM | 0.264 µM | 3.73 µM | 1.29 µM | 4.17 µM | 1.92 µM | > 10 µM | 1.38 µM | 7.43 µM | 0.00718 µM | 0.831 µM |
| CN1CCN(c2ccc3c4c(cccc24)C(=O)N(CCN2CCN(CCCN4CCN(CCN5C(=O)c6cccc7c(N8CCN(C)CC8)ccc(c67)C5=O)CC4)CC2)C3=O)CC1 | 7 µM | 14.1 µM | 8.36 µM | 19.8 µM | 10.6 µM | 38.7 µM | 8.59 µM | 18.6 µM | 7.54 µM | 14.2 µM | 9.49 µM | 18.3 µM | 0.738 µM | 4.4 µM | 2.99 µM | 10.7 µM | 4.2 µM | 10.3 µM | 5.06 µM | 18.5 µM |
| COc1ccc(O)c(C(=O)c2ccc(C(=O)O[C@@H]3CCCNC[C@H]3NC(=O)c3ccncc3)cc2)c1F | 0.0788 µM | > 7.51 µM | 1.57 µM | > 25 µM | 0.174 µM | > 25 µM | 0.541 µM | 3.15 µM | 1.2 µM | > 25 µM | 0.946 µM | > 25 µM | 2.08 µM | > 25 µM | 1.04 µM | > 25 µM | 1.87 µM | 24.2 µM | 0.275 µM | > 25 µM |
| CCC[C@H](N[C@@H]1CCc2cc(F)cc(F)c2C1)C(=O)Nc1cn(C(C)(C)CNCC(C)(C)C)cn1 | 3.68 µM | 64.8 µM | 13.4 µM | 28.2 µM | 15.3 µM | 64.4 µM | 12.2 µM | 24.8 µM | 10.5 µM | 26.9 µM | 26.3 µM | > 100 µM | 17.8 µM | > 81.1 µM | 27.5 µM | > 100 µM | 15.3 µM | > 81 µM | 15.6 µM | > 56.7 µM |
